Measured values taken from patent US20260027116A1, “Methods of Treating Chronic Graft-Versus-Host Disease Following Allogeneic Hematopoietic Stem Cell Transplantation” (Kadmon Corporation, LLC, priority 2022, published 2026).

Tested on: patients with cGVHD
Conditions: Cohort 1 200 mg QD
Description: All responses were assessed by the investigators.
Reported Adverse Events. […] All-cause mortality data collected during the study were assessed for all enrolled participants. Disease progression related death was not reported as AE.
Number of Participants With Treatment-emergent Adverse Events (TEAEs), and Treatment-emergent Serious Adverse Events (TESAEs). […] TEAEs included both SAEs and non-SAEs. […] Analysis was performed on safety population which included all participants who received at least 1 dose of study medication.

CC(C)NC(=O)COc1cccc(-c2nc(Nc3ccc4[nH]ncc4c3)c3ccccc3n2)c1 [Belumosudil, 2-{3-[4-(1H-indazol-5-ylamino)-2-quinazolinyl]phenoxy}-N-(propan-2-yl) acetamide]
8: Aspartate aminotransferase increased: # Events
4 (24): All grade Headache, No. (%)
3: Dry eye: # Events | Glucose urine present: # Events
6: Blood alkaline phosphatase increased: # Events
4/17 (23.53%): Blood alkaline phosphatase increased: Affected/At Risk (%) | Gamma-glutamyltransferase increased: Affected/At Risk (%)
1 (6): All grade Cough, No. (%) | Grade ≥3 Dyspnea, No. (%) | Grade ≥3 Hypoxia, No. (%)
6 (35): All grade Diarrhea, No. (%) | All grade Fatigue, No. (%) | All grade Nausea, No. (%)
4: Acute kidney injury: # Events | Decreased appetite: # Events | Erectile dysfunction: # Events
8 (47): Drug-related AE, No. (%)
5 (29): All grade Hypertension, No. (%)
5/17 (29.41%): Anaemia: Affected/At Risk (%) | Aspartate aminotransferase increased: Affected/At Risk (%)
2 (12): Grade ≥3 ALT/AST increased, No. (%) | Grade ≥3 Anemia, No. (%) | Grade ≥3 Hyperglycemia, No. (%)
11 (65): All grade ALT/AST increased, No. (%)
(11.76%): All-Cause Mortality, %
2: Abdominal pain: # Events | Adrenal insufficiency: # Events | Anal incontinence: # Events | Blood cholesterol increased: # Events | Contusion: # Events | Dehydration: # Events | Dyspnoea: # Events | Fall: # Events | Gastrooesophageal reflux disease: # Events
0: Actinic keratosis: # Events | Asthenia: # Events | Back pain: # Events | Balance disorder: # Events | Basal cell carcinoma: # Events | Blister: # Events | Blood chloride decreased: # Events | Blood creatine increased: # Events | Bronchial secretion retention: # Events | Conjunctival haemorrhage: # Events | Conjunctivitis: # Events | Contrast media allergy: # Events | Corneal infection: # Events | Death, No. (%) | Depression: # Events | Dizziness: # Events | Drug eruption: # Events | Drug-related SAE, No. (%) | Dyspepsia: # Events | Enamel anomaly: # Events | Eye pain: # Events | Eye pruritus: # Events | Flatulence: # Events | Flushing: # Events | Gastric ulcer: # Events | Genital infection fungal: # Events | Glaucoma: # Events
0/17 (0%): Actinic keratosis: Affected/At Risk (%) | Asthenia: Affected/At Risk (%) | Back pain: Affected/At Risk (%) | Balance disorder: Affected/At Risk (%) | Basal cell carcinoma: Affected/At Risk (%) | Blister: Affected/At Risk (%) | Blood chloride decreased: Affected/At Risk (%) | Blood creatine increased: Affected/At Risk (%) | Bronchial secretion retention: Affected/At Risk (%) | Conjunctival haemorrhage: Affected/At Risk (%) | Conjunctivitis: Affected/At Risk (%) | Contrast media allergy: Affected/At Risk (%) | Corneal infection: Affected/At Risk (%) | Depression: Affected/At Risk (%) | Dizziness: Affected/At Risk (%) | Drug eruption: Affected/At Risk (%) | Dyspepsia: Affected/At Risk (%) | Enamel anomaly: Affected/At Risk (%) | Eye pain: Affected/At Risk (%) | Eye pruritus: Affected/At Risk (%) | Flatulence: Affected/At Risk (%) | Flushing: Affected/At Risk (%) | Gastric ulcer: Affected/At Risk (%) | Genital infection fungal: Affected/At Risk (%)
1: Abdominal distension: # Events | Abdominal pain upper: # Events | Acute respiratory distress syndrome: # Events | Anxiety: # Events | Arthralgia: # Events | Atelectasis: # Events | Benign prostatic hyperplasia: # Events | Blepharitis: # Events | Blood creatine phosphokinase increased: # Events | Blood creatinine increased: # Events | Blood loss anaemia: # Events | Bronchitis: # Events | Bronchoscopy: # Events | Catheter site haemorrhage: # Events | Chills: # Events | Chronic kidney disease: # Events | Constipation: # Events | Corneal abrasion: # Events | Cough: # Events | Dry skin: # Events | Dysphagia: # Events | Dyspnoea exertional: # Events | Embolism: # Events | Epidural lipomatosis: # Events | Epstein-Barr virus infection: # Events | Eye irritation: # Events | Fungal infection: # Events | Generalised oedema: # Events
14: Anaemia: # Events
7: Fatigue: # Events
3 (18): All grade Dyspnea, No. (%) | All grade Peripheral edema, No. (%)
1/17 (5.88%): Abdominal distension: Affected/At Risk (%) | Abdominal pain upper: Affected/At Risk (%) | Acute kidney injury: Affected/At Risk (%) | Acute respiratory distress syndrome: Affected/At Risk (%) | Adrenal insufficiency: Affected/At Risk (%) | Anal incontinence: Affected/At Risk (%) | Anxiety: Affected/At Risk (%) | Arthralgia: Affected/At Risk (%) | Atelectasis: Affected/At Risk (%) | Benign prostatic hyperplasia: Affected/At Risk (%) | Blepharitis: Affected/At Risk (%) | Blood cholesterol increased: Affected/At Risk (%) | Blood creatine phosphokinase increased: Affected/At Risk (%) | Blood creatinine increased: Affected/At Risk (%) | Blood loss anaemia: Affected/At Risk (%) | Bronchitis: Affected/At Risk (%) | Bronchoscopy: Affected/At Risk (%) | Catheter site haemorrhage: Affected/At Risk (%) | Chills: Affected/At Risk (%) | Chronic kidney disease: Affected/At Risk (%) | Constipation: Affected/At Risk (%) | Corneal abrasion: Affected/At Risk (%) | Cough: Affected/At Risk (%) | Dry skin: Affected/At Risk (%) | Dysphagia: Affected/At Risk (%) | Dyspnoea exertional: Affected/At Risk (%) | Embolism: Affected/At Risk (%) | Epidural lipomatosis: Affected/At Risk (%) | Epstein-Barr virus infection: Affected/At Risk (%) | Eye irritation: Affected/At Risk (%) | Fungal infection: Affected/At Risk (%) | Generalised oedema: Affected/At Risk (%)
17 (100): Any AE, No. (%)
9 (53): All grade URI, No. (%) | Grade ≥3 AE, No. (%)
6/17 (35.29%): Alanine aminotransferase increased: Affected/At Risk (%) | Diarrhoea: Affected/At Risk (%) | Fatigue: Affected/At Risk (%)
2/17: All-Cause Mortality, Affected/At Risk
9: Diarrhoea: # Events | Gamma-glutamyltransferase increased: # Events
2/17 (11.76%): Abdominal pain: Affected/At Risk (%) | Contusion: Affected/At Risk (%) | Decreased appetite: Affected/At Risk (%) | Dehydration: Affected/At Risk (%) | Dry eye: Affected/At Risk (%) | Dyspnoea: Affected/At Risk (%) | Erectile dysfunction: Affected/At Risk (%) | Fall: Affected/At Risk (%) | Gastrooesophageal reflux disease: Affected/At Risk (%) | Glucose urine present: Affected/At Risk (%)
12: Alanine aminotransferase increased: # Events
